Laboratory results as given in patent publication US9265771B2, “Method for treating Lyme disease” (Zoetis Services LLC, priority 2012, dated 2016).

How the values were obtained:
Type in all cases: in vivo, beagle dogs
B. burgdorferi [1] = test: Study B: microscopic examination of joints and skin at necropsy; details: for Number of Joints with Changes as Described for Lyme disease: N = 8
Protocol: (§1) Thirty-two (18 male and 14 female) beagle dogs were sero-negative for Borrelia burgdorferi, not vaccinated with any Borrelia spp vaccines, and acclimated at the study facility for seven days. The study was conducted under National Research Council guidelines (1996). […] Field-caught Ixodes from the northeast USA were placed on the dogs without containment chambers for 10 days; after ticks fed to repletion, dogs were treated with two applications of an approved topical acaricide with a 30-day interval between applications.
(§2) Forty days post-challenge, and prior to antibiotic treatments, blood was collected from each dog as were two skin biopsy punch samples near tick attachment sites. Blood was collected approximately monthly post-treatment. Skin biopsies were taken near the tick attachment site on Days 48/49, 118, 146, 180, and 315. Serum antibodies to Borrelia were assayed using the IDEXX SNAP-4Dx and QC6 ELISA. In cooperation with Cornell University, serum samples were analyzed using fluorescent-bead-based multiplex assays detecting antibodies against B. burgdorferi outer surface proteins OspA, OspC, and OspF. Data were expressed as median fluorescent intensities (MFI), and shown to be specific and sensitive to provide interpretative guidelines regarding infection. The skin biopsies were collected for a polymerase chain reaction (PCR; FlaB) assay and cultured for spirochete detection. At the end of the study, blood and skin biopsies were collected and synovial tissue from the joints were harvested at necropsy.
(§3) On Day 75 and Day 89 Convenia was administered to the eight dogs in T04 (8 mg/kg bodyweight; subcutaneous injection). The other treated groups received their respective regimens daily and orally for 30 days from Days 75 to 104. […] Dogs in T01 served as infected, untreated, controls. Inter-treatment comparisons to evaluate antibiotic efficacy included clinical signs, serology, culture results and pathology.
At necropsy ten joints were harvested per each dog, formalin-fixed, stained and examined microscopically. Joints included the carpus, elbow, shoulder, stifle and tarsus on both the right and left limbs. Further, a section of skin near tick attachment sites was evaluated from each dog. There were two dogs in the Convenia group (25%) with tissues showing changes as described for Lyme disease, compared to seven controls (87.5%) and three (37.5%) to four (50.0%) dogs in the other antibiotic-treated groups (Table 7). […] The Convenia group had the lowest incidence of joint changes with six affected of 80.

[2] = test system: B. burgdorferi outer surface protein OspF; test: Study B: fluorescent-bead-based multiplex assay, antibodies against OspF; details: for Multiplex Assay OspF: No. Dogs > Positive Threshold (# dogs > 1500): 8 dogs/group
Protocol: as §1
as §2, with “Data were expressed as median fluorescent intensities (MFI), and shown to be specific and sensitive to provide interpretative guidelines regarding infection.” left out
On Day 75 and Day 89 Convenia was administered to the eight dogs in T04 (8 mg/kg bodyweight; subcutaneous injection). The other treated groups received their respective regimens daily and orally for 30 days from Days 75 to 104. […] Dogs in T01 served as infected, untreated, controls.

B. burgdorferi [3] = test: Study B: QC6 ELISA in tick-infected dogs; details: 8 dogs/group
Source text: (§4) Three outer surface proteins (Osp) on B. burgdorferi are important for diagnosis and prevention, and are expressed by the organism in response to its local environment. […] OspF is another surface protein that is generally observed in late-stage disease. The C in […] refers to a 25-amino acid, C6 peptide in the sixth invariable region of an outer membrane lipoprotein (VIsE). Antibody against C6 is highly accurate as a serologic diagnosis of Lyme disease independent of a subject's (e.g., canine) vaccination status. Further, the generation of C6 antibodies implies an active infection with viable spirochetes. Serological methods for detecting B. burgdorfer/Lyme disease were conducted using the IDEXX qualitative SNAP-4Dx ELISA and the Quantitative C6 (Quant C6 or QC6) diagnostic kits, which are enzyme linked immunosorbent assays against the previously described 25-amino-acid C6 peptide. QC6 ELISA data, units/mL, are useful for guidance in initiating and evaluating response to therapy (See Levy S A, O'Connor T P, Hanscom J L, Shields P, et al. Quantitative measurement of a C6 antibody following antibiotic treatment of Borrelia burgdorferi antibody-positive, nonclinical dogs. Clin Vacc Immunol 2008; 15(1):115-119 and Littman M P, Goldstein R E, Labato M A, et al. ACVIM Small Animal Concensus Statement on Lyme Disease in Dogs: Diagnosis, Treatment and Prevention. J Vet Intern Med 2006; 20: 422-434).
as §1, §2, §3

B. burgdorferi [4] = test: Study B: SNAP-4Dx ELISA in tick-infected dogs; details: N = 8/group
Source text: as §4, §1, §2, §3

[5] = joints, skin, 8 dogs/group, necropsy

C[C@H]1c2cccc(O)c2C(=O)C2=C(O)[C@]3(O)C(=O)C(C(N)=O)=C(O)[C@@H](N(C)C)[C@@H]3[C@@H](O)[C@@H]21 [doxycycline] was tested, and the “Number of Joints with Changes as Described for Lyme disease, Cumulative” value (B. burgdorferi [1]; 80 total/group) was 11, the “Number of Joints with Changes as Described for Lyme disease” value (B. burgdorferi [1]; Carpus L) was 1 and the “Number of Joints with Changes as Described for Lyme disease” value (B. burgdorferi [1]; Carpus R) was 2. For the same compound, the “Number of Joints with Changes as Described for Lyme disease” value (B. burgdorferi [1]; Elbow L) was 1, the “Number of Joints with Changes as Described for Lyme disease” value (B. burgdorferi [1]; Elbow R) was 1 and the “Number of Joints with Changes as Described for Lyme disease” value (B. burgdorferi [1]; Shoulder L) was 1. For the same compound, the “Number of Joints with Changes as Described for Lyme disease” value (B. burgdorferi [1]; Shoulder R) was 0, the “Number of Joints with Changes as Described for Lyme disease” value (B. burgdorferi [1]; Stifle L) was 1 and the “Number of Joints with Changes as Described for Lyme disease” value (B. burgdorferi [1]; Stifle R) was 2. The “Number of Joints with Changes as Described for Lyme disease” value (B. burgdorferi [1]; Tarsus L) was 2, the “Number of Joints with Changes as Described for Lyme disease” value (B. burgdorferi [1]; Tarsus R) was 0 and the “No Tissue Changes, # Dogs” value (B. burgdorferi [1]; [5]) was 5. For the same compound, the “No Tissue Changes, %” value (B. burgdorferi [1]; [5]) was 62.5%, the “Tissue Changes Described for Lyme Disease, # Dogs” value (B. burgdorferi [1]; [5]) was 3 and the “Tissue Changes Described for Lyme Disease, %” value (B. burgdorferi [1]; [5]) was 37.5%. For the same compound, the “Multiplex Assay OspF: MFI Mean” value ([2]; Day 48 (pre-treatment)) was 943.38 MFI, the “Multiplex Assay OspF: No. Dogs > Positive Threshold (# dogs > 1500)” value ([2]; Day 48 (pre-treatment)) was 1 and the “Multiplex Assay OspF: MFI Mean” value ([2]; Day 111) was 1174.38 MFI. The “Multiplex Assay OspF: No. Dogs > Positive Threshold (# dogs > 1500)” value ([2]; Day 111) was 1, the “Multiplex Assay OspF: MFI Mean” value ([2]; Day 145) was 490.63 MFI and the “Multiplex Assay OspF: No. Dogs > Positive Threshold (# dogs > 1500)” value ([2]; Day 145) was 0. For the same compound, the “Multiplex Assay OspF: MFI Mean” value ([2]; Day 179) was 395.88 MFI, the “Multiplex Assay OspF: No. Dogs > Positive Threshold (# dogs > 1500)” value ([2]; Day 179) was 0 and the “Multiplex Assay OspF: MFI Mean” value ([2]; Day 221) was 334.75 MFI. For the same compound, the “Multiplex Assay OspF: No. Dogs > Positive Threshold (# dogs > 1500)” value ([2]; Day 221) was 0, the “Multiplex Assay OspF: MFI Mean” value ([2]; Day 251) was 340.88 MFI and the “Multiplex Assay OspF: No. Dogs > Positive Threshold (# dogs > 1500)” value ([2]; Day 251) was 0. The “Multiplex Assay OspF: MFI Mean” value ([2]; Day 281) was 343.63 MFI, the “Multiplex Assay OspF: No. Dogs > Positive Threshold (# dogs > 1500)” value ([2]; Day 281) was 0 and the “Multiplex Assay OspF: MFI Mean” value ([2]; Day 314) was 353.25 MFI. For the same compound, the “Multiplex Assay OspF: No. Dogs > Positive Threshold (# dogs > 1500)” value ([2]; Day 314) was 0, the “Multiplex Assay OspF: MFI Mean” value ([2]; Day −15 (pre-infection)) was 113.50 MFI and the “Multiplex Assay OspF: No. Dogs > Positive Threshold (# dogs > 1500)” value ([2]; Day −15 (pre-infection)) was 0. The “Dogs Sero-converted to B. burgdorferi per QC6 ELISA (≧30 U/mL), (%)” value (B. burgdorferi [3]; Day 48 (pre-treatment)) was 75.0%, the “Number of Dogs Sero-converted to B. burgdorferi per QC6 ELISA (≧30 U/mL), No.” value (“Number … per QC6 ELISA (≧30 U/mL), No.” below) (B. burgdorferi [3]; Day 48 (pre-treatment)) was 6 and the “Dogs Sero-converted to B. burgdorferi per QC6 ELISA (≧30 U/mL), (%)” value (B. burgdorferi [3]; Day 111) was 62.5%. For the same compound, the “Number … per QC6 ELISA (≧30 U/mL), No.” value (B. burgdorferi [3]; Day 111) was 5, the “Dogs Sero-converted to B. burgdorferi per QC6 ELISA (≧30 U/mL), (%)” value (B. burgdorferi [3]; Day 145) was 0.0% and the “Number … per QC6 ELISA (≧30 U/mL), No.” value (B. burgdorferi [3]; Day 145) was 0. The “Dogs Sero-converted to B. burgdorferi per QC6 ELISA (≧30 U/mL), (%)” value (B. burgdorferi [3]; Day 179) was 0.0%, the “Number … per QC6 ELISA (≧30 U/mL), No.” value (B. burgdorferi [3]; Day 179) was 0 and the “Dogs Sero-converted to B. burgdorferi per QC6 ELISA (≧30 U/mL), (%)” value (B. burgdorferi [3]; Day 221) was 0.0%. For the same compound, the “Number … per QC6 ELISA (≧30 U/mL), No.” value (B. burgdorferi [3]; Day 221) was 0, the “Dogs Sero-converted to B. burgdorferi per QC6 ELISA (≧30 U/mL), (%)” value (B. burgdorferi [3]; Day 251) was 0.0% and the “Number … per QC6 ELISA (≧30 U/mL), No.” value (B. burgdorferi [3]; Day 251) was 0. For the same compound, the “Dogs Sero-converted to B. burgdorferi per QC6 ELISA (≧30 U/mL), (%)” value (B. burgdorferi [3]; Day 281) was 0.0%, the “Number … per QC6 ELISA (≧30 U/mL), No.” value (B. burgdorferi [3]; Day 281) was 0 and the “Dogs Sero-converted to B. burgdorferi per QC6 ELISA (≧30 U/mL), (%)” value (B. burgdorferi [3]; Day 314) was 0.0%. The “Number … per QC6 ELISA (≧30 U/mL), No.” value (B. burgdorferi [3]; Day 314) was 0, the “SNAP-4Dx Positives, Number of Dogs” value (B. burgdorferi [4]; Day 48 (pre-treatment; antibiotics from Day 75)) was 6 and the “SNAP-4Dx Positives, Number of Dogs” value (B. burgdorferi [4]; Day 111) was 7. The “SNAP-4Dx Positives, Number of Dogs” value (B. burgdorferi [4]; Day 145) was 6, the “SNAP-4Dx Positives, Number of Dogs” value (B. burgdorferi [4]; Day 179) was 1 and the “SNAP-4Dx Positives, Number of Dogs” value (B. burgdorferi [4]; Day 221) was 0. The “SNAP-4Dx Positives, Number of Dogs” value (B. burgdorferi [4]; Day 251) was 0, the “SNAP-4Dx Positives, Number of Dogs” value (B. burgdorferi [4]; Day 281) was 0 and the “SNAP-4Dx Positives, Number of Dogs” value (B. burgdorferi [4]; Day 315) was 0. For the same compound, the “SNAP-4Dx Positives, Number of Dogs” value (B. burgdorferi [4]; Day −15 (pre-infection)) was 0.
